US20190330220A1, “METHODS OF MAKING SUBSTITUTED PORPHYRIN PHARMACEUTICAL COMPOUNDS AND COMPOSITIONS” (Duke University, priority 2016, published 2019)
Like-named read-outs stand apart in the source and are kept apart here.

Columns and labels:
cells = settings: compared with ethyl analogue, background statement; cited from earlier work
[1] = toxicity compared with analogous alkyl-chain Mn porphyrins
[2] = electrochemistry, Mn(III)/Mn(II) reduction potential; type: physicochemical
Procedure: (§1) Electrochemistry, electrospray-ionization mass spectrometry (ESI-MS), UV-visible spectroscopy and SOD-like activity were carried out as previously described.^29, 32. All quantum chemistry calculations have been performed at the M06-2X/6-311++G(2d,p)//M06-2X/6-31+G(d) DFT level^33-38 using the Gaussian 09 software.^39 All frequency calculations were carried out at […] and used to characterize minima and transition states. The solvent effect has been taken into account using the CPCM continuum solvation model^40 for N,N-dimethylformamide (DMF). The free energies of reactants, transition states, and products have been obtained from the ideal gas partition functions for the structures optimized in solution^40 and corrected to include the compression work of the gas^41 (or liberation free energy^42) to standard 1 mol L^−1 concentration. The coulombic stabilization energy due to the formation of ionic pairs in DMF has also been included in the final results by approximating each ion as a sphere, whose volume was considered the same as that of the solute cavity;^43 the distance between cation and anion in the ionic pair was taken as the sum of the two sphere radii.

[3] = lipophilicity of Mn porphyrin complex
[4] = rat Comet assay (genotoxicity); settings: pre-clinical studies
SOD-like activity = type: biochemical
Procedure: as §1

[5] = background statement; cited from earlier work

**Q.** For `CCCCCC[n+]1ccccc1-c1c2nc(c(-c3cccc[n+]3CCCCCC)c3ccc([n-]3)c(-c3cccc[n+]3CCCCCC)c3nc(c(-c4cccc[n+]4CCCCCC)c4ccc1[n-]4)C=C3)C=C2.[Mn+3]` [MnTnHex-2-PyP^5+, Mn(III) meso-tetrakis-(N-n-hexylpyridinium-2-yl)porphyrin], which accumulation in cells (cells) is on record?
**A.** higher levels than its ethyl analogue

**Q.** With `CCCCOCC[n+]1ccccc1C1=C2C=CC3=[N+]2[Mn]24[n]5c1ccc5C(c1cccc[n+]1CCOCCCC)=C1C=CC(=[N+]12)C(c1cccc[n+]1CCOCCCC)=c1ccc([n]14)=C3c1cccc[n+]1CCOCCCC` [MnTnBuOE-2-PyP^5+, Mn(III) meso-tetrakis-(N-n-butoxyethylpyridinium-2-yl)porphyrin] as the molecule, how does the toxicity [1] read?
**A.** low toxicity

**Q.** What about the “fold less toxic than analogous ortho alkyl MnP^5+” value ([1]; relative to analogous alkyl chains) of the same molecule?
**A.** 4-5 fold

**Q.** And the “Mn(III)/Mn(II) reduction potential (E1/2)” value [2]?
**A.** high

**Q.** And the lipophilicity [3]?
**A.** lipophilic

**Q.** What about the “genotoxicity in a rat Comet assay” value [4] of the same molecule?
**A.** lack of genotoxicity

**Q.** What about the SOD-like activity (SOD-like activity) of the same molecule?
**A.** high

**Q.** With `CC[n+]1ccccc1-c1c2nc(c(-c3cccc[n+]3CC)c3ccc([n-]3)c(-c3cccc[n+]3CC)c3nc(c(-c4cccc[n+]4CC)c4ccc1[n-]4)C=C3)C=C2.[Mn+3]` [MnTE-2-PyP^5+, Mn(III) meso-tetrakis-(N-ethylpyridinium-2-yl)porphyrins] as the molecule, how does the lipophilicity [5] read?
**A.** low lipophilicity
